“Also recorded” adds a separate entry of the source.
Columns and labels:
Type in all cases: physicochemical
[1] = Physical stability upon exposure to AAC (40° C./75% RH) for 2 days, remeasured by HT-XRPD; settings: for solid form conversion upon exposure to AAC: HT-XRPD
Protocol: (§1) The solvent equilibration experiments were incubated in the Crystal16™ parallel crystallization reactor at 5, 25 and 50° C. for 3 days. Up on completion of the ageing time, the solids were separated from the liquid phases, dried at ambient conditions and under vacuum, and analyzed by HT-XRPD. Afterwards, all solids were exposed to AAC (40° C./75% RH) for 2 days and remeasured by HT-XRPD. The liquids were analyzed by Karl Fisher to estimate the water content. The experimental details and results are reported in Table 9, Table 10 and Table 11.
(§2) Upon completion of the equilibration time, the solids were dried at ambient conditions and under vacuum (5 mbar/50° C./overnight) and analyzed by HT-XRPD. Afterwards, all solids were exposed to AAC (40° C./75% RH) for 2 days and remeasured by HT-XRPD.
as §2, with “Table 11: Experimental details and results of equilibration experiments performed at 50° C. for 1 week. Upon” for “Upon”, “mbar/RT/overnight)” for “mbar/50° C./overnight)”

[2] = Physical stability upon drying under vacuum, HT-XRPD
Protocol: as §1, §2
Thermocycling experiments were started by preparing suspensions of Form B1 in the selected anhydrous solvents. The suspensions were subjected to a temperature profile between 50 and 5° C., followed by aging at 25° C. for 72 hours. Upon completion of the aging time, the solids were separated from the liquid phases, dried at ambient conditions and under vacuum, and measured by HT-XRPD. When solutions were recovered, those were left to evaporate at ambient conditions.

[3] = Physical stability of Form B1 at three storage conditions (Example 10)
Protocol: Solid samples of Form B 1 was incubated at three different conditions to test physical stability: 80° C., closed vial, 24 hours; 60° C./29% RH, open vial, 48 hours; and 40° C./75% RH, open vial, 48 hours. The solids recovered after the stability studies were analyzed by HIR-XRPD, TGMS, and DSC.

[4] = Investigation under variable RH levels by DVS and XRPD
Protocol: The powder data were collected on D8 Advance diffractometer using Cu Kα1 radiation (1.54056 Å) with germanium monochromator at 30° C. using the SYCOS H-HOT hot humid chamber produced by Ansyco GmbH. The data were collected in the Bragg-Brentano geometry (locked coupled) from 8 to 35θ 2θ on the flat sample holder (without rotation) on solid state LynxEye detector with 0.018θ per step with 1 sec/step scan speed. After reaching demanded humidity the sample was relaxed for 5 minutes before measurement. The sample was optionally measured with 2 seconds per step and in the last measurement at RH 000 the relaxation time was elongated to 30 min.

[5] = sample recovered from thermocycling in ethyl acetate

Q: With `CC(C)[C@@H](CC[C@@H](C)[C@H]1CCC2C3C(CC[C@@]21C)[C@@]1(C)CC[C@H](NCCCNCCCCN)C[C@@H]1C[C@H]3O)OS(=O)(=O)O.O=P(O)(O)O` (stereo in doubt) [Form D, squalamine phosphate] as the compound, how does the “physical stability upon exposure to AAC” value [1] read?
A: physically unstable

Q: What about the “solid form conversion upon exposure to AAC” value [1] of the same compound?
A: converted to a mixture containing Form A1 and an unknown phase

Q: With `CC(C)[C@@H](CC[C@@H](C)[C@H]1CC[C@H]2[C@@H]3[C@H](O)C[C@H]4C[C@@H](NCCCNCCCCN)CC[C@]4(C)[C@H]3CC[C@]12C)OS(=O)(=O)O.O=P(O)(O)O` [Form A1, squalamine phosphate] as the compound, how does the “solid form conversion in vacuum-dried solids of the hydrate screen” value ([2]; vacuum-dried, in some cases) read?
A: converted to the mixed hydrate/solvate Form A2, or to the low-degree hydrates B1 and B2

Q: Which “physical stability upon exposure to AAC” value [1] does the source give for `CC(C)[C@@H](CC[C@@H](C)[C@H]1CC[C@H]2[C@@H]3[C@H](O)C[C@H]4C[C@@H](NCCCNCCCCN)CC[C@]4(C)[C@H]3CC[C@]12C)OS(=O)(=O)O.O=P(O)(O)O` [Form A2, squalamine phosphate] here?
A: physically unstable

Q: What about the “solid form conversion upon exposure to AAC” value ([1]; listed as A2) of the same compound?
A: converted to Form A1

Q: For `CC(C)[C@@H](CC[C@@H](C)[C@H]1CC[C@H]2[C@@H]3[C@H](O)C[C@H]4C[C@@H](NCCCNCCCCN)CC[C@]4(C)[C@H]3CC[C@]12C)OS(=O)(=O)O.O=P(O)(O)O` [Form B1, squalamine phosphate], which “solid form conversion upon exposure to AAC” value ([1]; listed as B1) is on record?
A: converted to Form A1

Q: And the “RH at which the form already absorbs water, converting to Form A1” value [3]?
A: 29 % RH

Q: What about the “Mass loss (%)” value ([3]; TGMS of solid recovered after 40° C./75% RH, open vial 48 h) of the same compound?
A: 8.9%

Q: And the “Mass loss (%)” value ([3]; TGMS of solid recovered after 60° C./29% RH, open vial 48 h)?
A: 9.0%

Q: What about the “Mass loss (%)” value ([3]; TGMS of solid recovered after 80° C., closed vial, 24 h) of the same compound?
A: 1.8%

Q: With `CC(C)[C@@H](CC[C@@H](C)[C@H]1CC[C@H]2[C@@H]3[C@H](O)C[C@H]4C[C@@H](NCCCNCCCCN)CC[C@]4(C)[C@H]3CC[C@]12C)OS(=O)(=O)O.O=P(O)(O)O` [Form B2, squalamine phosphate] as the compound, how does the “solid form conversion upon exposure to AAC” value ([1]; listed as B2) read?
A: converted to Form A1; also recorded: conversion to Form A1

Q: And the “physical stability upon drying” value [2, 5]?
A: not physically stable

Q: What about the “solid form conversion upon drying” value [2, 5] of the same compound?
A: converted to a mixture of Forms A1 and D

Q: And the “physical stability upon drying” value ([2]; samples recovered from 1-propanol and THE)?
A: stable

Q: For `CC(C)[C@@H](CC[C@@H](C)[C@H]1CC[C@H]2[C@@H]3[C@H](O)C[C@H]4C[C@@H](NCCCNCCCCN)CC[C@]4(C)[C@H]3CC[C@]12C)OS(=O)(=O)O.O=P(O)(O)O` [Form C, squalamine phosphate], which “behaviour on release of water at low RH levels or at high temperature” value [4] is on record?
A: converting to Form A1

Q: What does the source list for `CC(C)[C@@H](CC[C@@H](C)[C@H]1CC[C@H]2[C@@H]3[C@H](O)C[C@H]4C[C@@H](NCCCNCCCCN)CC[C@]4(C)[C@H]3CC[C@]12C)OS(=O)(=O)O.O=P(O)(O)O` [Form E, squalamine phosphate]?
A: solid form conversion upon exposure to AAC ([1]; listed as E): converted to Form A1; solid form conversion upon drying under vacuum ([2]; 5 mbar/50° C./overnight, solid from thermocycling in methanol): converted to Form F; also recorded: conversion to a poorly crystalline phase, classified as Form F; Physical Stability ([2]; upon drying at 50° C.): Unstable upon

Q: For `CC(C)[C@@H](CC[C@@H](C)[C@H]1CC[C@H]2[C@@H]3[C@H](O)C[C@H]4C[C@@H](NCCCNCCCCN)CC[C@]4(C)[C@H]3CC[C@]12C)OS(=O)(=O)O.O=P(O)(O)O` [Form F, squalamine phosphate], which “solid form conversion upon exposure to AAC” value ([1]; listed as F) is on record?
A: converted to Form A1

Reference: patent US20230234983A1, “SQUALAMINE CRYSTALLINE POLYMORPHS” (Enterin, Inc., priority 2022, published 2023)
